Experimental findings from PubChem BioAssay AID2060599 (Molecular Pharmacology Branch, DTP, NCI, 2025) are described below.

The test relates to 817829-284-R-J1-PDC complex spheroids, viability. The experiment in a line: Anticancer human tumor 817829-284-R-J1-PDC patient-derived colon adenocarcinoma cell line growth inhibition [CLK]. To be noted: for viability, T/C: stronger effect = lower value; for IC50: curve of compound. In a few lines: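 Patient-derived tumor cells grown as complex spheroids with HUVEC endothelial cells and mesenchymal stem cells, treated with drug combinations. Concentrations descend in half-log steps from near clinical Cmax, or from 10 microM if Cmax unknown.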

“And” between values parts separate entries of the source, which are not always exact repeats. Equal values may be shown once.
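Further: spheroids exposed to the agents for seven days before readout.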

A word on the viability, T/C: it is the ratio of treated to control. As usually defined, the IC50 is the concentration at which inhibition is half-maximal. As to `CC(C)CC(NC(=O)C(Cc1ccccc1)NC(=O)c1cnccn1)B(O)O` (centres undefined), the IC50 was 1.51 nM and 1.63 nM. For the same compound, the viability, T/C (compound 0.000949 µM) is 80.8% and 93.1%. In addition, the viability, T/C (compound 0.003 µM) was 4.56% and 1.33%. In addition, the viability, T/C (compound 0.00949 µM) was 0.1% and 0.36%. For the same compound, the viability, T/C (compound 0.03 µM) is 0.16% and 0.15%. Where the note is “compound 0.0949 µM”, the viability, T/C is 0.05% and 0.24%. In addition, under “compound 0.3 µM”, the viability, T/C was 0.08% and 0.2%.

Regarding `CC(Nc1ccc2c(c1)OCCn1cc(N3C(=O)OCC3C(F)F)nc1-2)C(N)=O` (centres undefined), the half-inhibitory concentration (IC50) was 1420 nM and 834 nM. Besides, the viability, T/C (compound 0.0316 µM) is 62.2% and 116%. Moreover, the viability, T/C (compound 0.1 µM) is 92% and 69.5%. Moreover, the viability, T/C (compound 0.316 µM) was 72.2% and 60.7%. In addition, the viability, T/C (compound 1 µM) was 51.6% and 59.1%. Further, where the note is “compound 3.16 µM”, the viability, T/C is 52.4% and 39.5%. The viability, T/C (compound 10 µM) is 35.8% and 37.7%.
